Test [1] has as its target T1, JNK3 (Homo sapiens, UniProt P53779). The test can be described thus: NanoBRET TE intracellular JNK3 assay. Type of test: cell-based. The settings on record: for IC50 / decreased binding affinity compared to lead structure 1: NanoBRET TE intracellular JNK3 assay; for IC50: tracer K-10 0.25 µM, means of at least two independent experiments, read-out: JNK3 IC50 ± SEM; for decreased binding affinity compared to lead structure 1: relative to 1 (IC50 = 243 nM). As for the experimental part: The NanoBRET™ TE intracellular JNK3 assay was performed as previously described by Andreev et al., with minor modifications.
Cells were treated with trypsin and centrifuged (210× g, 5 min) one day prior to the experiment. Afterwards, cells were resuspended in Leibovitz’ L-15 medium, supplemented with 5% FCS and 10 mM HEPES, and the suspension was adjusted to a density of 300.000 cells per mL. Meanwhile the transfection reagent was prepared. For a 96-well plate, transfection carrier DNA (4 µg) (Promega, Fitchburg, WI, USA) and JNK3-NanoLuc® Fusion vector (0.45 µg) (Promega) were diluted in Leibovitz’ L-15 medium (450 µL) and, finally, X-tremeGENE HP (13.5 µL) (Roche Diagnostics, Mannheim, Germany) was added. The mixture was incubated for 20 min at room temperature. Subsequently, the lipid–DNA complex was added to 9 mL of the cell suspension. A total of 80 µL of this cell suspension were added to each well of a white 96-well plate (Brand, Wertheim, Germany), which was incubated for 24 h at 37 °C (no additional CO2).
The fluorescent tracer K-10 (Promega, Mannheim, Germany) was diluted in DMSO to a concentration of 25 µM (100-fold more concentrated than the final assay concentration). This was further diluted 10-fold using the tracer dilution buffer (Promega, Mannheim, Germany), yielding a dilution which was 10-fold more concentrated than the final assay concentration. Next, 10 µL of the final fluorescent tracer dilution were added to the cells (the final concentration of K-10 in the assay was 0.25 µM).

The target in test [2] is T1, JNK3. Nature of the test: radiometric JNK3 activity assay at Eurofins Discovery. In kind it is biochemical. As to conditions: for IC50: radiometric JNK3 activity assay; for decreased biological activity compared to parent compound 1: radiometric assay, relative to 1 (IC50 = 6 nM).
Test [3] deals with T1, JNK3. The test can be described thus: compound washout (kinetic analysis) in the NanoBRET assay. Type of test: cell-based. The settings on record: 2 h incubation at 10-fold IC50, four washes, tracer 1 µM. As for the experimental part: To study the putative covalent binding of inhibitors 8 and 13, we next applied the compound washout method in the NanoBRET^TM assay. Briefly, we established a protocol where the compound dissociation of 8 and 13 was determined indirectly by their ability to inhibit binding of the ATP-competitive tracer. The covalent inhibitor 1 was used as a positive control, and the propionamide 10 was used as a negative control.
For kinetic analyses experiments, plates were coated with crosslinked gelatin to improve cell adhesion. The transfection of the cells was carried out as described above, but 90 µL of cell suspension were seeded. The next day, cells were first incubated with the test compound in a 10-fold concentration of the respective IC50 value. After 2 h, the unbound compound was removed by washing the cells four times with 100 µL of Leibovitz’ L-15. Furimazine was then added according to the manufacturer`s protocol. Afterwards, a near-saturating concentration of tracer (1 µM) was added, and the measurement was started immediately.
(In BRET a luciferase serves as donor, and the signal depends on an acceptor being close.)

Test [4] deals with T2, JNK3(C154A)-NLuc (Homo sapiens, UniProt P53779, C154A).
T2 construct: mutant made in house by PCR
T2 sequence (P53779 whole entry C154A): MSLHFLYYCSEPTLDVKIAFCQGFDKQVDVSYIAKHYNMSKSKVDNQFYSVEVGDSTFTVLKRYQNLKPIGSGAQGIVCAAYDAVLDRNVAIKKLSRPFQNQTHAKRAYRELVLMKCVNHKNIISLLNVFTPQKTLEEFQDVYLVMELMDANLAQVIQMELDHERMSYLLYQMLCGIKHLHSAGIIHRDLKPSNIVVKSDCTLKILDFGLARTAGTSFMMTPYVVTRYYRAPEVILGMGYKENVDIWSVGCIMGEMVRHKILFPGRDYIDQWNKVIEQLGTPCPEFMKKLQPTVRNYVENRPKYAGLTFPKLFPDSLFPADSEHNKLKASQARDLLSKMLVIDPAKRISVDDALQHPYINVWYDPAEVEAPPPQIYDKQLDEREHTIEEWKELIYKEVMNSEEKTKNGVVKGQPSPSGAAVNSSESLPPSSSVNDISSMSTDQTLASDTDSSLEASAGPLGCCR
The test can be described thus: NanoBRET TE intracellular assay with JNK3(C154A)-NLuc mutant. Type of test: cell-based. The settings on record: single point mutation C154A. As to the method:
To generate the cDNA of the JNK3(C154A)-NLuc mutant, JNK3-NanoLuc® Fusion vector (Promega) was used as a template, and two partially overlapping primers (5′-[…] and 5′-[…]) (synthesized by Eurofins, Ebersberg) annealed to the template. Phusion HF DNA Polymerase was obtained from New England BioLabs (Frankfurt, Germany). The polymerase chain reaction (PCR) was carried out as described in the Phusion HF polymerase protocol. The PCR product was treated with Dpn I endonuclease and transformed into competent E. coli Top 10 cells. Point mutation was confirmed by sequencing (Eurofins Discovery).

For test [5], the target named is T1, JNK3. Further details: method as in PMID 34081840. As to conditions: light pulses at 390 nm, trans-cis switch; cited from earlier work.
The target in test [6] is T1, JNK3. Further details: method as in PMID 34081840. As to conditions: cellular NanoBRET assay, light pulses at 400 nm; cited from earlier work.

T1 sequence (P53779 whole entry): as the sequence (P53779 whole entry C154A) above, with A154C counted along it

Turning to `CCC(=O)Nc1cccc(NC(=O)c2ccc(Nc3cc(-c4c(-c5ccc(F)cc5)nc(SC)n4C)ccn3)cc2)c1` [compound 14, 4-((4-(4-(4-Fluorophenyl)-1-methyl-2-(methylthio)-1H-imidazol-5-yl)pyridin-2-yl)amino)-N-(3-propionamidophenyl)benzamide], the IC50 was > 10000 nM in test [1] and 22 nM in test [2].

Consider `C=CC(=O)Nc1cccc(C(=O)N(C)c2ccc(Nc3cc(-c4c(-c5ccc(F)cc5)nc(SC)n4C)ccn3)cc2)c1` [compound 8, 3-Acrylamido-N-(4-((4-(4-(4-fluorophenyl)-1-methyl-2-(methylthio)-1H-imidazol-5-yl)pyridin-2-yl)amino)phenyl)-N-methylbenzamide hydrotrifluoroacetate], for which, in test [1], the “decreased binding affinity compared to lead structure 1” value is reported as 4 fold and the IC50 was found to be 1360 ± 342 nM. In addition, in test [2], the midpoint of inhibition, the IC50, lay at 14 nM and the “decreased biological activity compared to parent compound 1” value was “two-fold decreased”. In test [3], the “compound dissociation after washout (displacement by tracer)” value (“compound dissociation after washout” below) was “remained persistently bound”. Moreover, in test [4], the “change in binding affinity for JNK3(C154A)-NLuc versus wildtype JNK3-NLuc” value was “dramatic decrease in the binding affinity”.

Turning to `CCC(=O)Nc1cccc(C(=O)N(C)c2ccc(Nc3cc(-c4c(-c5ccc(F)cc5)nc(SC)n4C)ccn3)cc2)c1` [compound 10, N-(4-((4-(4-(4-Fluorophenyl)-1-methyl-2-(methylthio)-1H-imidazol-5-yl)pyridin-2-yl)amino)phenyl)-N-methyl-3-propionamidobenzamide], the figures for the half-inhibitory concentration (IC50) in test [1] and in test [2] were 5020 ± 97 nM and 24 nM, respectively. Further, in test [3], the “compound dissociation after washout” value is recorded as “quickly displaced by the tracer”.

As for `C=CC(=O)Nc1cccc(C(=O)Nc2ccc(Nc3cc(-c4c(-c5ccc(F)cc5)nc(SC)n4C)ccn3)cc2)c1` [compound 1, acrylamido-N-(4-((4-(4-(4-fluorophenyl)-1-methyl-2-(methylthio)-1H-imidazol-5-yl)pyridin-2-yl)amino)phenyl)benzamide, reference compound], the half-inhibitory concentration (IC50) was 243 ± 75 nM in test [1] and 6 nM in test [2]. In test [3], the “compound dissociation after washout” value is listed as “remained persistently bound”.

`C=CC(=O)Nc1cccc(NC(=O)c2ccc(Nc3cc(-c4c(-c5ccc(F)cc5)nc(SC)n4C)ccn3)cc2)c1` [compound 13, N-(3-Acrylamidophenyl)-4-((4-(4-(4-fluorophenyl)-1-methyl-2-(methylthio)-1H-imidazol-5-yl)pyridin-2-yl)amino)benzamide hydrotrifluoroacetate]: in test [1], the “decreased binding affinity compared to lead structure 1” value amounted to 5.5 fold and the IC50 amounted to 1060 ± 252 nM. Also, in test [2], 13 nM corresponded to half-maximal inhibition (IC50) and the “decreased biological activity compared to parent compound 1” value is “two-fold decreased”. Further, in test [3], the “compound dissociation after washout” value is given as “remained persistently bound”. In addition, in test [4], the “change in binding affinity for JNK3(C154A)-NLuc versus wildtype JNK3-NLuc” value is “dramatic decrease in the binding affinity”.

For `C=CC(=O)Nc1cccc(NC(=O)c2ccc(N(Cc3cc(OC)c(OC)cc3[N+](=O)[O-])c3cc(-c4c(-c5ccc(F)cc5)nc(SC)n4C)ccn3)cc2)c1` [compound 17, N-(3-Acrylamidophenyl)-4-((4,5-dimethoxy-2-nitrobenzyl)(4-(4-(4-fluorophenyl)-1-methyl-2-(methylthio)-1H-imidazol-5-yl)pyridin-2-yl)amino)benzamide hydrotrifluoroacetate], in test [1], the half-maximal inhibitory concentration (IC50) was 9490 ± 538 nM. Also, the “decrease in JNK3 binding by introduction of the photocleavable protecting group” value in test [1] (NanoBRET assay, without irradiation, relative to parent 13) was “nearly one order of magnitude”.

For the compound `C=CC(=O)Nc1ccc2c(c1)CCc1cc(Nc3cc(-c4c(-c5ccc(F)cc5)nc(SC)n4C)ccn3)ccc1/N=N\2` [compound 2], the “increase in biochemical activity by light (factor)” value in test [5] is reported as 30. In addition, the “increase in inhibitory potency by light (factor)” value in test [6] is “factor of only two”.

Usually IC50 stands for the point on the concentration scale where inhibition reaches its midpoint.
